Experimental data taken from patent publication US10358454B2, “Marinopyrrole derivatives and methods of making and using same” (H. LEE MOFFITT CANCER CENTER AND RESEARCH INSTITUTE, INC., priority 2014, dated 2019).
Like-named read-outs stand apart in the source and are kept apart here. Values belong to the compound of their own block, whether it stands above or below them.

Tests used:
Bcl-xL/Bim = Bcl-xL/Bim (Homo sapiens, UniProt Q07817); test: Bcl-xL/Bim ELISA (GST-Bcl-xL binding to biotinylated Bim BH3 peptide)
Description: (§1) ELISAs were performed using a modified version of a previously described procedure (Doi K et al. J. Biol. Chem. 2012, 287, 10224-10235). Briefly, 40 nM of biotinylated Bim BH3 peptide (Biomatik) in SuperBlock blocking buffer (Pierce) was incubated in high-binding capacity streptavidin-coated plates (Pierce) for 2 h. Compounds were diluted in 120 μl of PBS containing 10 nM of GST-Mcl-1 or GST-Bcl-xL in 1.5 mL tubes for 15 min. Wells were washed with wash buffer (PBS containing 0.05% Tween-20) and then 100 μL of the compound/GST-protein mixture was transferred to the wells. The plates were incubated for 2 h, and then the wells were washed with wash buffer. HRP-conjugated anti-GST antibody (Bethyl Laboratories) was diluted 1:2000 in SuperBlock and 100 μL was transferred to each well. The plate was incubated for 1 h, and then the wells were washed with wash buffer followed by PBS. 100 μL of SureBlue TMB Microwell Peroxidase Substrate (VWR) was added to each well and plates were developed for 5-10 min. 100 μL of 1 N HCl was added to each well to stop the reaction and absorbance was read at 450 nm using a μQuant plate reader (Bio-Tek).
(§2) ELISAs were performed using a similar procedure as previously described (Doi K, et al. J. Biol. Chem. 2012, 287, 10224-10235). Briefly, 40 nM of biotinylated Bim BH3 peptide (Biomatik) in SuperBlock blocking buffer (Pierce) was incubated in high-binding capacity streptavidin-coated plates (Pierce) for 2 h. Compounds were diluted in 120 μl of PBS containing 10 nM of GST-Mcl-1 or GST-Bcl-xL in 1.5 mL tubes for 15 min. Wells were washed with wash buffer (PBS containing 0.05% Tween-20) and then 100 μL of the compound/GST-protein mixture was transferred to the wells. The plates were incubated for 2 h, and then wells were washed with wash buffer. HRP-conjugated anti-GST antibody (Bethyl Laboratories) was diluted 1:2000 in SuperBlock and 100 μL was transferred to each well. The plate was incubated for 1 h, and then wells were washed with wash buffer followed by PBS. 100 μL of SureBlue TMB Microwell Peroxidase Substrate (VWR) was added to each well and plates were developed for 5-10 min. 100 μL of 1 N HCl was added to each well to stop the reaction and absorbance was read at 450 nm using μQuant plate reader (Bio-Tek).

Mcl-1/Bim = Mcl-1/Bim (Homo sapiens, UniProt Q07820); test: Mcl-1/Bim ELISA (GST-Mcl-1 binding to biotinylated Bim BH3 peptide); conditions: for fold loss of potency against Mcl-1/Bim: 1-15 and 1-13 vs 1-10, 1-14 vs 1-11, 1-16 vs 1-15, 1-12 vs 1-9, 1-22, 1-21, 1-20 vs 1-23, 1-37 and N-Me methoxy analogue vs (±)-1; for selectivity profile Mcl-1 vs Bcl-xL in words: from Mcl-1/Bim and Bcl-xL/Bim ELISA; for selectivity for Mcl-1 over Bcl-xL (Mcl-1/Bim over Bcl-xL/Bim): ratio of ELISA IC50 values
Description: as §1, §2

[1] = Table 3-A structure I, Bcl-xL at 10 nM, n ≥ 3, read-out: Bcl-xL-Bim IC50 (average ± SEM)
[2] = Table 2-B, n ≥ 3, read-out: Mcl-1/Bim IC50 (average ± SEM)
[3] = Table 3-A structure I, Mcl-1 at 10 nM, n ≥ 3, read-out: Mcl-1-Bim IC50 (average ± SEM)
[4] = Table 1, Bcl-xL at 10 nM, n ≥ 3, read-out: Bcl-xL-Bim IC50 (average ± SEM)
[5] = Table 2-B, n ≥ 3 unless specified, read-out: Bcl-xL/Bim IC50 (average ± SEM)
[6] = Table 1, Mcl-1 at 10 nM, n ≥ 3, read-out: Mcl-1-Bim IC50 (average ± SEM)
[7] = read-out: IC50 to inhibit the binding of Mcl-1 to Bim

Chain of Bcl-xL/Bim (Q07817 whole entry): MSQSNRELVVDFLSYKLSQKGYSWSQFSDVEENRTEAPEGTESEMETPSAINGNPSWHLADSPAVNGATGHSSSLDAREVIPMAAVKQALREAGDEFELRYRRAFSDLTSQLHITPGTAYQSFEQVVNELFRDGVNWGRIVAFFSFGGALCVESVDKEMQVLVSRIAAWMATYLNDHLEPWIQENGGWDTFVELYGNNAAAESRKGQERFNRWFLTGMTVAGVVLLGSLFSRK
Chain of Mcl-1/Bim (Q07820 whole entry): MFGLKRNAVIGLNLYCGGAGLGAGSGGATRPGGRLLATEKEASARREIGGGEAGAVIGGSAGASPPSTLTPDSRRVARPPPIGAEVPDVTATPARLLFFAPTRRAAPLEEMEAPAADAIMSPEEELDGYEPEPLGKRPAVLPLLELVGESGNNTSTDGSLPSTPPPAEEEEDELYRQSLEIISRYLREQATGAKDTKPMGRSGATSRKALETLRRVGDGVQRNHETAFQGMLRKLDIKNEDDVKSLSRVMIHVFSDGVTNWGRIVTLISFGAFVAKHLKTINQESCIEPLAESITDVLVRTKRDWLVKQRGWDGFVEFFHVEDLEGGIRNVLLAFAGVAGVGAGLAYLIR

- IC50 (Bcl-xL/Bim; [1]): 69.3 ± 5.8 µM
- fold loss of potency against Mcl-1/Bim (Mcl-1/Bim): 16 fold
- IC50 (Mcl-1/Bim; [2]): 11.2 ± 4 µM
- IC50 (Mcl-1/Bim; [3]): 7.3 ± 1.4 µM
Structure (SMILES): O=C(c1ccc(S(=O)(=O)Cc2ccccc2)cc1O)c1[nH]c(Cl)c(Cl)c1-n1c(C(=O)c2ccc(S(=O)(=O)Cc3ccccc3)cc2O)cc(Cl)c1Cl [Compound 1-13, (4,4′,5,5′-Tetrachloro-1′H-1,3′-bipyrrole-2,2′-diyl)bis(((2-hydroxy-4-benzylsulfonyl)phenyl)methanone)]

- selectivity profile Mcl-1 vs Bcl-xL in words (Mcl-1/Bim): dual Mcl-1 and Bcl-XL antagonists
Structure (SMILES): O=C(c1ccc(C(F)(F)F)cc1O)c1[nH]c(Cl)c(Cl)c1-n1c(C(=O)c2ccc(C(F)(F)F)cc2O)cc(Cl)c1Cl [Compound 1-1]

- IC50 (Bcl-xL/Bim; [4]): > 100 µM
- IC50 (Bcl-xL/Bim; [5]): 9.5 ± 2.2 µM
- IC50 (Bcl-xL/Bim; Table 3-C structure IV, n ≥ 3 (IV-1: n = 2), read-out: Bcl-xL-Bim IC50 (average ± SEM)): 9.5 ± 2.2 µM
- IC50 (Mcl-1/Bim; [6]): 42.5 ± 6 µM
- IC50 (Mcl-1/Bim; [2]): 8 ± 1.6 µM
- IC50 (Mcl-1/Bim; Table 3-C structure IV, n ≥ 3, read-out: Mcl-1-Bim IC50 (average ± SEM)): 8 ± 1.6 µM
- selectivity profile Mcl-1 vs Bcl-xL in words (Mcl-1/Bim): dual Mcl-1 and BclxL antagonists
Structure (SMILES): O=C1c2ccc(O)cc2Oc2c(Cl)cc(C(=O)c3ccc(O)cc3O)n2-c2c1[nH]c(Cl)c2Cl [IV-2, 2,3,7-Trichloro-5-(2,4-dihydroxybenzoyl)-10-hydroxybenzo[g]dipyrrolo[2,1-b:3′,2′-d][1,3]oxazo-cin-13(1H)-one]

- selectivity for Mcl-1 over Bcl-xL (Mcl-1/Bim over Bcl-xL/Bim) (Mcl-1/Bim): 8.3 fold
Structure (SMILES): CC(C)(C)OC(=O)Cn1cc(-c2cc(O)c(C(=O)c3[nH]c(Cl)c(Cl)c3-n3c(C(=O)c4cc(Cl)c(-c5cn(CC(=O)OC(C)(C)C)nn5)cc4O)cc(Cl)c3Cl)cc2Cl)nn1 [Compound 1-18, Di-tert-butyl 2,2′-(4,4′-((4,4′,5,5′-tetrachloro-1′H-1,3′-bipyrrole-2,2′-dicarbonyl)bis(2-chloro-5-hydroxy-4,1-phenylene))bis(1H-1,2,3-triazole-4,1-diyl))diacetate]

- activity against Bcl-xL/Bim in words (Bcl-xL/Bim): not active
- IC50 (Bcl-xL/Bim; Table 2-A, n ≥ 3, read-out: Bcl-xL/Bim IC50 (average ± SEM)): > 100 µM
- IC50 (Bcl-xL/Bim; Table 3-B structure II, n ≥ 3, read-out: Bcl-xL-Bim IC50 (average ± SEM)): > 100 µM
- IC50 (Mcl-1/Bim; Table 2-A, n ≥ 3, read-out: Mcl-1/Bim IC50 (average ± SEM)): 7.8 ± 1.5 µM
- IC50 (Mcl-1/Bim; Table 3-B structure II, n ≥ 3, read-out: Mcl-1-Bim IC50 (average ± SEM)): 7.8 ± 1.5 µM
- selectivity for Mcl-1 over Bcl-xL (Mcl-1/Bim over Bcl-xL/Bim) (Mcl-1/Bim): 12.9 fold
- IC50 (Mcl-1/Bim; [7]): 7.8 µM
Structure (SMILES): CCOC(=O)Cn1cc(-c2cc(O)c(C(=O)c3[nH]c(Cl)c(Cl)c3-n3c(C(=O)c4cc(Cl)c(-c5cn(CC(=O)OCC)nn5)cc4O)cc(Cl)c3Cl)cc2Cl)nn1 [Compound 1-17, Diethyl 2,2′-(4,4′-((4,4′,5,5′-tetrachloro-1′H-1,3′-bipyrrole-2,2′-dicarbonyl)bis(2-chloro-5-hydroxy-4,1-phenylene))bis(1H-1,2,3-triazole-4,1-diyl))diacetate]

- IC50 (Bcl-xL/Bim; [4]): > 100 µM
- IC50 (Bcl-xL/Bim; read-out: IC50 to inhibit Bcl-xL/Bim binding): > 100 µM
- IC50 (Mcl-1/Bim; [6]): > 100 µM
- IC50 (Mcl-1/Bim; [7]): > 100 µM
Structure (SMILES): O=C1c2ccc(P(=O)(O)O)cc2Oc2c(Cl)cc(C(=O)c3ccc(P(=O)(O)O)cc3O)n2-c2c1[nH]c(Cl)c2Cl [IV-6, 3-Hydroxy-4-(2,3,7-trichloro-13-oxo-10-phosphoryl-1,13-dihydrobenzo[g]dipyrrolo[2,1-b:3′,2′-d][1,3]oxazocine-5-carbonyl) phosphonic acid]

- IC50 (Bcl-xL/Bim; [5]): > 50 µM
- fold loss of potency against Mcl-1/Bim (Mcl-1/Bim): 21 fold
- IC50 (Mcl-1/Bim; [2]): 37.3 ± 3.1 µM
Structure (SMILES): CCOC(=O)CS(=O)(=O)c1ccc(C(=O)c2[nH]c(Cl)c(Cl)c2-n2c(C(=O)c3ccc(S(=O)(=O)CC(=O)OCC)cc3O)cc(Cl)c2Cl)c(O)c1 [Compound 1-12]

- IC50 (Bcl-xL/Bim; [5]): 2.5 ± 0.7 µM
- IC50 (Bcl-xL/Bim; [1]): 2.1 ± 0.7 µM
- IC50 (Mcl-1/Bim; [2]): 1 ± 0.3 µM
- IC50 (Mcl-1/Bim; [3]): 1 ± 0.3 µM
- IC50 (Mcl-1/Bim; [7]): 1 µM
Structure (SMILES): O=C(c1ccc(OS(=O)(=O)C(F)(F)F)cc1O)c1[nH]c(Cl)c(Cl)c1-n1c(C(=O)c2ccc(OS(=O)(=O)C(F)(F)F)cc2O)cc(Cl)c1Cl [Compound 1-6, (4,4′,5,5′-tetrachloro-1′H-1,3′-bipyrrole-2,2′-diyl)bis(((2-hydroxy-4-hydroxytrifluoromethanesulfonate)-phenyl)methanone)]

- IC50 (Bcl-xL/Bim; [5]): > 50 µM
- IC50 (Bcl-xL/Bim; [1]): > 50 µM
Structure (SMILES): O=C(c1cc(Cl)c(O)cc1O)c1[nH]c(Cl)c(Cl)c1-n1c(C(=O)c2cc(Cl)c(O)cc2O)cc(Cl)c1Cl [Compound 1-8]
